Experimental data as given in patent US10308608B2, “Histone deacetylase inhibitors” (BIOMARIN PHARMACEUTICAL INC., priority 2015, dated 2019).
Where a name gives a salt, the structure may show the parent alone.

Each compound was assayed on Frataxin (FXN) mRNA (assay: Effect of HDAC inhibitors on frataxin (FXN) mRNA expression, qRT-PCR in compound-treated iPSC derived neuronal cells). Conditions: iPSC, 24 h, compound concentration of 0.625 μM, 24 h incubation, read-out: FXN mRNA fold induction.
Format: cell-based
Outline: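 iPSC-derived neuronal cells, differentiated 16 days without EGF/bFGF, treated with compound 24 h. FXN mRNA measured by one-step SYBR Green qRT-PCR; fold induction reported at 0.625 μM compound, binned A<1, 1<B<2, 2<C<3, 3<D<5, E>5.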

| Structure (SMILES) | fold induction at 0.625 µM |
| --- | --- |
| CC(C)CN1CC[C@@H](Nc2ccc(C(=O)Nc3ccccc3N)cc2)C1 [Compound 104, (R)-N-(2-aminophenyl)-4-((1-isobutylpyrrolidin-3-yl)amino)benzamide trihydrochloride] | 2 to 3 |
| Nc1ccccc1NC(=O)c1ccc(N[C@H]2CCN(C3COC3)C2)cc1 [Compound 137, (S)-N-(2-aminophenyl)-4-((1-(oxetan-3-yl)pyrrolidin-3-yl)amino)benzamide] | 1 to 2 |
| Nc1ccccc1NC(=O)c1ccc(O[C@@H]2CCNC2)cc1 [Compound 57, (R)-N-(2-aminophenyl)-4-(pyrrolidin-3-yloxy)benzamide hydrochloride] | 2 to 3 |
| Nc1ccccc1NC(=O)c1ccc(OC2CN(C3COC3)C2)cc1 [Compound 126, N-(2-aminophenyl)-4-((1-(oxetan-3-yl)azetidin-3-yl)oxy)benzamide] | 1 to 2 |
| CC1(CN2CCC(Oc3ccc(C(=O)Nc4ccccc4N)cc3)CC2)CC1 [Compound 68, N-(2-aminophenyl)-4-((1-((1-methylcyclopropyl)methyl)piperidin-4-yl)oxy)benzamide dihydrochloride] | 1 to 2 |
| Nc1ccccc1NC(=O)c1ccc(NC2CCN(CC34CC5CC(CC(C5)C3)C4)CC2)cc1 [Compound 142, 4-((1-(((3r,5r,7r)-adamantan-1-yl)methyl)piperidin-4-yl)amino)-N-(2-aminophenyl)benzamide trihydrochloride] | 2 to 3 |
| CC(C)(O)CN1CCC(Nc2ccc(C(=O)Nc3ccccc3N)cc2)CC1 [Compound 4, N-(2-aminophenyl)-4-((1-(2-hydroxy-2-methylpropyl)piperidin-4-yl)amino)benzamide] | 1 to 2 |
| CC(C)CN1CCCC(Oc2ccc(C(=O)Nc3ccccc3N)cc2)CC1 (centres unmarked) [Compound 35, N-(2-aminophenyl)-4-((1-isobutylazepan-4-yl)oxy)benzamide dihydrochloride] | 2 to 3 |
| CN1CCC(Oc2ccc(C(=O)Nc3ccccc3N)cc2)CC1 [Compound 66, N-(2-aminophenyl)-4-((1-methylpiperidin-4-yl)oxy)benzamide dihydrochloride] | 1 to 2 |
| CN1CCCC(Oc2ccc(C(=O)Nc3ccccc3N)cc2)CC1 (centres unmarked) [Compound 34, N-(2-aminophenyl)-4-((1-methylazepan-4-yl)oxy)benzamide bis(2,2,2-trifluoroacetate)] | 1 to 2 |
| Nc1ccccc1NC(=O)c1ccc(N[C@H]2CCN(C3CC3)C2)cc1 [Compound 136, (S)-N-(2-aminophenyl)-4-((1-cyclopropylpyrrolidin-3-yl)amino)benzamide] | 1 to 2 |
| Nc1ccccc1NC(=O)c1ccc(OC2CCCN(CC3CCCCC3)CC2)cc1 (centres unmarked) [Compound 40, N-(2-aminophenyl)-4-((1-(cyclohexylmethyl)azepan-4-yl)oxy)benzamide dihydrochloride] | 3 to 5 |
| Nc1ccccc1NC(=O)c1ccc(NC2CCN(CC3CCCCC3)CC2)cc1 [Compound 114, N-(2-aminophenyl)-4-((1-(cyclohexylmethyl)piperidin-4-yl)amino)benzamide] | 1 to 2 |
| Nc1ccccc1NC(=O)c1ccc(N[C@H]2CCN(CC3CC3)C2)cc1 [Compound 99, (S)-N-(2-aminophenyl)-4-((1-(cyclopropylmethyl)pyrrolidin-3-yl)amino)benzamide trihydrochloride] | 2 to 3 |
| CC1(CN2CCC(Nc3ccc(C(=O)Nc4ccccc4N)cc3)CC2)CC1 [Compound 113, N-(2-aminophenyl)-4-((1-((1-methylcyclopropyl)methyl)piperidin-4-yl)amino)benzamide trihydrochloride] | 2 to 3 |
| Nc1ccccc1NC(=O)c1ccc(OC2CCNCC2)cc1 [Compound 65, N-(2-aminophenyl)-4-(piperidin-4-yloxy)benzamide hydrochloride] | 2 to 3 |
| CN1CC(Nc2ccc(C(=O)Nc3ccccc3N)cc2)C1 [Compound 87, N-(2-aminophenyl)-4-((1-methylazetidin-3-yl)amino)benzamide tris(2,2,2-trifluoroacetate)] | 2 to 3 |
| Nc1ccccc1NC(=O)c1ccc(OC2CCN(C3COC3)CC2)cc1 [Compound 132, N-(2-aminophenyl)-4-((1-(oxetan-3-yl)piperidin-4-yl)oxy)benzamide] | 1 to 2 |
| Nc1ccccc1NC(=O)c1ccc(NC2CN(C3COC3)C2)cc1 [Compound 135, N-(2-aminophenyl)-4-((1-(oxetan-3-yl)azetidin-3-yl)amino)benzamide] | 1 to 2 |
| CC(C)CN1CCC(Nc2ccc(C(=O)Nc3ccccc3N)cc2)CC1 [Compound 112, N-(2-aminophenyl)-4-((1-isobutylpiperidin-4-yl)amino)benzamide trihydrochloride] | 1 to 2 |
| Nc1ccccc1NC(=O)c1ccc(O[C@H]2CCN(C3CC3)C2)cc1 [Compound 127, (S)-N-(2-aminophenyl)-4-((1-cyclopropylpyrrolidin-3-yl)oxy)benzamide dihydrochloride] | 1 to 2 |
| Nc1ccccc1NC(=O)c1ccc(O[C@H]2CCN(CC3CC3)C2)cc1 [Compound 54, (S)-N-(2-aminophenyl)-4-((1-(cyclopropylmethyl)pyrrolidin-3-yl)oxy)benzamide dihydrochloride] | 1 to 2 |
| CC(C)CN1CC[C@H](Oc2ccc(C(=O)Nc3ccccc3N)cc2)C1 [Compound 51, (S)-N-(2-aminophenyl)-4-((1-isobutylpyrrolidin-3-yl)oxy)benzamide dihydrochloride] | 1 to 2 |
| Nc1ccccc1NC(=O)c1ccc(NC2CN(CC3CCCCC3)C2)cc1 [Compound 93, N-(2-aminophenyl)-4-((1-(cyclohexylmethyl)azetidin-3-yl)amino)benzamide] | 2 to 3 |
| CC(C)CN1CCC(Oc2ccc(C(=O)Nc3ccccc3N)cc2)CC1 [Compound 67, N-(2-aminophenyl)-4-((1-isobutylpiperidin-4-yl)oxy)benzamide dihydrochloride] | 1 to 2 |
| Nc1ccccc1NC(=O)c1ccc(NC2CN(CC3CC3)C2)cc1 [Compound 91, N-(2-aminophenyl)-4-((1-(cyclopropylmethyl)azetidin-3-yl)amino)benzamide trihydrochloride] | 1 to 2 |
| Nc1ccccc1NC(=O)c1ccc(N[C@@H]2CCNC2)cc1 [Compound 102, (R)—N-(2-aminophenyl)-4-(pyrrolidin-3-ylamino)benzamide Trihydrochloride] | 2 to 3 |

Same assay, conditions: iPSC, 24 h, read-out: FXN mRNA fold induction, compound concentration of 0.625 μM, 24 h incubation

| Structure (SMILES) | fold induction at 0.625 µM |
| --- | --- |
| Nc1ccccc1NC(=O)c1ccc(OC2CC3CCC(C2)N3CC2CCCCC2)cc1 (centres unmarked) [Compound 77, N-(2-aminophenyl)-4-((8-(cyclohexylmethyl)-8-azabicyclo[3.2.1]octan-3-yl)oxy)benzamide dihydrochloride] | 1 to 2 |
| CC(C)(O)CN1C2CCC1CC(Nc1ccc(C(=O)Nc3ccccc3N)cc1)C2 (centres unmarked) [Compound 118, N-(2-aminophenyl)-4-((8-(2-hydroxy-2-methylpropyl)-8-azabicyclo[3.2.1]octan-3-yl)amino)benzamide] | 2 to 3 |
